Entries after “also recorded” stand apart in the source; their conditions may differ. No end group written: not given here.
Tests used:
GPRC6A [1] = system: GPRC6A; set-up: method as in 2 sources, ref 5 = [5]; PMID 15576628; doi:10.1124/mol.104.007559; 5. Wellendorph P Deorphanization of GPRC6A: a promiscuous L-alpha-amino acid receptor with preference for basic amino acids Molecular Pharmacology 2005 67 3 589 97 10.1124/mol.104.007559 15576628 ||| ref 6 = [6]; PMID 20947496; doi:10.1074/jbc.M110.158063; 6. Pi M Parrill AL Quarles LD GPRC6A mediates the non-genomic effects of steroids Journal of Biological Chemistry 2010 285 51 39953 64 10.1074/jbc.M110.158063 20947496 PMC3000977; conditions: cited from earlier work
GPRC6A [2] = assay: Displacement of labelled ucOCN by SHBG141–161 on HEK-293 cells transfected with human Gprc6a; type: binding; conditions: for staining signal for labelled ucOCN vs ucOCN alone: 1 nM biotinylated ucOCN, 1 h room temperature, binding buffer pH 7.4, streptavidin-FITC, image analysis, mean of 3 independent experiments
Experimental: The binding of SHBG141–161 to GPRC6A was assessed by displacement experiments as previously described. To this aim, HEK-293 cells were transfected with human Gprc6a gene (Fig. 2C-I,II). The efficiency of the procedure was evaluated by real-time PCR, allowing the identification of a specific signal for Gprc6a gene only in transfected cells. Accordingly, a specific membrane signal was observed by immunostaining only in transfected cells. On these bases, HEK-293 cells transfected with Gprc6a gene were incubated with 1 nM labelled ucOCN and SHBG141–161 at the concentration of 0, 10 nM (10×) and 100 nM (100×) (Fig. 2D-I,II).
Human embryonic kidney (HEK)-293T cells (passage number 11 to 15) were obtained from the American Type Culture Collection (ATCC®-LGC Standards Sesto San Giovanni, MI, Italy) and cultivated in DMEM [ATCC®; RRID 30–2002) and supplemented with 10% fetal bovine serum (Euroclone, Milano, Italy; RRID: ECS0180L) and 1%antibiotic/antimycotic mixture in a humidified incubator at 37 °C with 5% CO2. Expression vector containing wild-type (WT) human GPRC6A cDNA (OriGene Technologies, Inc) was used according to manufacturer’s instruction. Briefly, cultured HEK- 293 T cells at 70% of confluence were transfected by FuGENE 6 (Roche Diagnostics) with 1 μg/well of GPRC6A-pcDNA and maintained for 48 hours, followed by overnight starving in serum-free condition to achieve quiescence. HEK-293T cells transfected with empty vector were used as negative controls. Starved cells were fixed in 1% paraformaldehyde and used for binding assessment by incubation for 1 h at room temperature with biotinylated ucOCN, with or without SHBG141–161 in ice-cold-binding buffer (50 mM Tris-HCl [pH 7.4], 10 mM MgCl2, 0.1 mM EDTA, and 0.1% BSA) according to the different experimental conditions used. After extensive washing in cold PBS, samples were incubated with streptavidin-Fluorescein isothiocyanate (FITC) (dilution 1:200; Sigma-Aldrich; RRID: S3762). Evaluation of GPRC6A expression by immunofluorescence was performed as described for β-TC6 (see below). Computer assisted image analysis was performed by the ImageJ image analysis software, powered by routines specifically developed by our group as previously described[43],[44]. […]

MA-10 cells = assay: Testosterone (T) release from Leydig MA-10 cells (GPRC6A-mediated); type: cell-based, Mouse; conditions: for agonist activity (T release) after GPRC6A blockade: pre-incubation with anti-GPRC6A polyclonal antibodies 20 mg/mL, 30 minutes at 37 °C; for T release vs basal: 48 hours; for effect of SHBG pre-incubation on T release induced by SHBG141–161: then SHBG141–161 10^−11M
Experimental: Human ucOCN was obtained from chemical decarboxylation of cxOCN, purchased from Bachem AG (Bachem, Bubendorf, Switzerland), as previously described. For displacement experiments, an aliquot ucOCN underwent chemical biotinylation as previously described[9],[41]. Unliganded human SHBG was purchased by […], Belgium). Human chorionic gonadotropin Gonasi was purchased by IBSA Farmaceutici Srl (Italy). Mouse Leydig-carcinoma cell line MA-10 (passage number 3 to 8; ATCC®; RRID: CRL-1573) were cultured on 0,1% gelatin/PBS-coated plasticware according to the manufacturer's instructions and maintained in DMEM:F12 Medium (ATCC®; RRID: 30-2006; pH 7,4) supplemented with additional 20 mM HEPES and horse serum to a final concentration of 15%. For immunofluorescence experiments, cells were let attach on 0,1% gelatin/PBS-coated round-coverslips (ø 13 mm, Menzel-Gläser-VWR International Srl, Milan, Italy) and then washed and fixed with 4% paraformaldehyde/PBS solution at room temperature for 15 min. After membrane permeabilization with 1% Triton X/PBS solution for 10 min at room temperature, cells were saturated with 5% bovine serum albumin/5% normal donkey serum/PBS solution for 1 hour and then incubated with rabbit-polyclonal anti-mouse GPRC6A IgG (dilution 1:200; Santa Cruz Biotechnology Inc. Heidelberg Germany; RRID: sc-67302,) and goat-polyclonal anti-human INSL3 IgG (dilution 1:200; Santa Cruz Biotechnology Inc; RRID: sc-48550) at 4 °C overnight. After extensive washing, primary immunoreaction was detected by appropriate secondary reagent, respectively: biotin conjugated-anti rabbit IgG (dilution 1:100; Vector Laboratories, Peterborough, UK; RRID: BA-1000) followed by Streptavidin […], (dilution 1:100; GeneTex/Prodotti Gianni, Milano, Italy; RRID: GTX85907) and FITC conjugated-anti goat IgG (dilution 1:100; Abcam, Milan, Italy; RRID: ab6737). Samples were then counterstained with 4',6-diamidino-2-phenylindole (DAPI), mounted with anti-fade buffer and then analyzed with Video-Confocal (VICO) fluorescence microscope (Nikon, Firenze, Italy). […] RRID: KGE010) according to manufacturer's instructions. Receptor blockade experiments were performed by pre-incubating cultured cells with anti-GPRC6A polyclonal antibodies (final concentration of […]; Santa Cruz Biotechnology Inc; RRID: sc-67302) for 30 minutes at 37 °C as previously described.

β-TC6 cells = assay: Insulin release from Langerhans β-TC6 cells (GPRC6A-mediated); type: cell-based, Mouse; conditions: for agonist activity (insulin release) after GPRC6A blockade: pre-incubation with anti-GPRC6A polyclonal antibodies 20 mg/mL, 30 minutes at 37 °C; for insulin release vs basal: 2 hours at 37 °C in 3 mM glucose/HBSS; for effect of SHBG pre-incubation on insulin release induced by SHBG141–161: then SHBG141–161 10^−11M
[3] = Far-UV circular dichroism; type: physicochemical; conditions: 25 °C, PBS (20 mM sodium phosphate, pH 7.4, 0.1 M NaCl), 70 μg/ml
Experimental: The conformational properties of SHBG141–161 were investigated by far-UV circular dichroism (CD) on a Jasco J-710 spectropolarimeter, equipped with a Peltier temperature control system. The molar concentration of the peptide was determined spectrophotometrically by recording the absorbace at 257 nm, using an absorptivity value for phenylalanine of 200 M-1·cm-1. CD spectra were recorded at 25 °C in a 1-mm pathlength quartz cell at a scan-speed of 10 nm/min, with a response time of 16 sec, and resulted from the average of two accumulations after baseline subtraction. CD signal was expressed as the mean residue ellipticity (θ) = θobs·MRW/(10·l·c), where θobs is the observed signal in degrees, MRW is the protein mean residue weight, l is the cuvette pathlength in cm, and c is the protein concentration in g/ml.

[4] = system: extracellular domain of GPRC6A; conditions: previous study; immunoprecipitation assays; cited from earlier work
Excerpt: To this regard, our group recently reported that sex hormone-binding protein (SHBG), the major blood carrier of T, is able to bind the extrace ... || If on one hand these represent encouraging results about the reliability of GPRC6A as therapeutic target, on the other hand, drug peptides and biologics drown great interest for their favorable safety profile, target specificity and pharmacokinetics compared with traditional small-molecule drugs. To this regard, the metabotropic receptor GPRC6A has been widely investigated as the mediator of non-genomic effects of androgens.

[5] = SHBG141–161 concentrations greater than 10^−9 M, preliminary experiments, data not shown
[6] = SHBG 10^−14-10^−9M, any of the concentration tested
[7] = increasing SHBG, 1 hour at 37 °C

Molecule: NCCCC[C@H](N)C(=O)O [L-lysine]
- activation of GPRC6A (GPRC6A [1]): activated

Molecule: zinc
- activation of GPRC6A (GPRC6A [1]): activated

Molecule: N=C(N)NCCC[C@H](N)C(=O)O [L arginine]
- activation of GPRC6A (GPRC6A [1]): activated

Molecule: magnesium
- activation of GPRC6A (GPRC6A [1]): activated

Molecule: C[C@]12CC[C@H]3[C@@H](CCC4=CC(=O)CC[C@@]43C)[C@@H]1CC[C@@H]2O [T, testosterone]
- non-genomic action mediated by GPRC6A (GPRC6A [1]): mediator of non-genomic action of T

Molecule: calcium
- activation of GPRC6A (GPRC6A [1]): activated

Molecule: ucOCN: Human ucOCN was obtained from chemical decarboxylation of cxOCN, purchased from Bachem AG (YLYQWLGAPVPYPDPLEPRREVCELNPDCDELADHIGFQEAYRRFYGPV; ends and bridges not checked; also: undercarboxylated by chemical decarboxylation of carboxylated OCN; UniProt P02818 52-100, looked up)
- membrane signal of labelled ucOCN alone, transfected cells (GPRC6A [2]; 1 nM labelled ucOCN, HEK-293 + GPRC6A): clear membrane signal associated with GPRC6A expression
- staining of labelled ucOCN, non-transfected cells (GPRC6A [2]; 1 nM labelled ucOCN, HEK-293 without GPRC6A): absence of significant staining in non-transfected cells
- agonist activity (T release) after GPRC6A blockade (MA-10 cells): completely abolished the agonist activity
- T release vs basal (MA-10 cells; ucOCN 0,5–2 nM): progressive and significant increase of T release
- agonist activity (insulin release) after GPRC6A blockade (β-TC6 cells): completely abolished the agonist activity
- insulin release vs basal (β-TC6 cells; ucOCN 0,5–2 nM): significant and dose dependent increase of insulin release

Molecule: IALGGLLFPASNLRLPLVPAL [SHBG141–161]
- competition with ucOCN for binding to GPRC6A (overall result) (GPRC6A [2]; 0, 10 nM and 100 nM SHBG141–161, 1 nM labelled ucOCN): progressive reduction of the signal for labelled ucOCN; also recorded: compete with ucOCN for the binding to GPRC6A; also recorded: partial competition activity
- staining signal for labelled ucOCN vs ucOCN alone (GPRC6A [2]; SHBG141–161 10 nM (10×)): significant reduction of the staining signal for ucOCN
- staining signal for labelled ucOCN vs ucOCN alone (GPRC6A [2]; SHBG141–161 100 nM (100×)): significant reduction of the staining signal for ucOCN
- T release vs basal (MA-10 cells; SHBG141–161, particularly 10^−13 to 10^−11M, five independent experiments): increase of T release
- T release at high concentration (MA-10 cells; [5]): not effective
- agonist activity (T release) after GPRC6A blockade (MA-10 cells): completely abolished the agonist activity
- insulin release vs basal (β-TC6 cells; SHBG141–161 10^−13 to 10^−10 M, five independent experiments): significant increased insulin levels in culture supernatants
- insulin release at high concentration (β-TC6 cells; [5]): not effective
- agonist activity (insulin release) after GPRC6A blockade (β-TC6 cells): completely abolished the agonist activity
- conformation by far-UV CD [3]: random or non-regular conformation
- far-UV CD minimum [3]: 200 nm

B1: SHBG: Unliganded human SHBG was purchased by Affiland; the major blood carrier of T (protein, UniProt P04278 30-402, looked up)
Sex hormone-binding globulin: LRPVLPTQSAHDPPAVHLSNGPGQEPIAVMTFDLTKITKTSSSFEVRTWDPEGVIFYGDTNPKDDWFMLGLRDGRPEIQLHNHWAQLTVGAGPRLDDGRWHQVEVKMEGDSVLLEVDGEEVLRLRQVSGPLTSKRHPIMRIALGGLLFPASNLRLPLVPALDGCLRRDSWLDKQAEISASAPTSLRSCDVESNPGIFLPPGTQAEFNLRDIPQPHAEPWAFSLDLGLKQAAGSGHLLALGTPENPSWLSLHLQDQKVVLSSGSGPGLDLPLVLGLPLQLKLSMSRVVLSQGSKMKALALPPLGLAPLLNLWAKPQGRLFLGALPGEDSSTSFCLNGLWAQGQRLDVDQALNRSHEIWTHSCPQSPGNGTDASH
- effect of SHBG pre-incubation on T release induced by SHBG141–161 (MA-10 cells; SHBG 10^−12M, 1 hour at 37 °C): complete blunt of the secretory stimulating activity
- effect of SHBG pre-incubation on T release induced by SHBG141–161 (MA-10 cells; SHBG 10^−13M, 1 hour at 37 °C): significant reduction of T release; also recorded: significantly blunted
- induction of T release by SHBG alone (MA-10 cells; [6]): ineffective
- effect of SHBG pre-incubation on T release induced by hCG (MA-10 cells; SHBG, any of the concentration tested, 1 hour at 37 °C, then hCG 2,5 nM): negligible effect on T and insulin release
- effect of SHBG pre-incubation on T release induced by SHBG141–161 (MA-10 cells; [7]): progressive reduction of T and insulin release
- effect of SHBG pre-incubation on insulin release induced by SHBG141–161 (β-TC6 cells; SHBG 10^−12M, 1 hour at 37 °C): complete blunt of the secretory stimulating activity
- induction of insulin release by SHBG alone (β-TC6 cells; [6]): ineffective
- effect of SHBG pre-incubation on insulin release induced by IBMX/glucose (β-TC6 cells; SHBG, any of the concentration tested, 1 hour at 37 °C, then 15 mM glucose + 100 μM IBMX): negligible effect on T and insulin release
- effect of SHBG pre-incubation on insulin release induced by SHBG141–161 (β-TC6 cells; [7]): progressive reduction of T and insulin release
- binding to GPRC6A [4]: simple binding observed through immunoprecipitation assays; also recorded: able to bind the extracellular domain of GPRC6A

Reference: publication PMC6923452, “SHBG141–161 Domain-Peptide Stimulates GPRC6A-Mediated Response in Leydig and β-Langerhans cell lines” (Scientific Reports, 2019)
